For series [1] the following is noted: reported value; cited from earlier work.
A short description of series [2]: Saturation concentration in de-ionized water. Format: physicochemical. The following applies: DI water. On the procedure:
Bupivacaine hydrochloride (Sigma-Aldrich Corporation, St. Louis, MO) was dissolved in de-ionized (DI) water at a concentration of 40 mg/ml (saturation). A calculated amount of sodium hydroxide (1 N solution) was added to the solution and the pH of the final mixtures was adjusted to 10 to precipitate the BP base. The precipitated product was filtered, and further washed with DI water for at least three times. The precipitated product was dried at approximately 40° C. in vacuum for 24 h.

Structures can show the parent of a compound that is named as a salt.

Take `CC(=O)OCC(COC(C)=O)OC(C)=O` [triacetin]: the solubility in water in series [1] was 7.17 grams in 100 ml of water.
For `CCCCN1CCCCC1C(=O)Nc1c(C)cccc1C` (centres unmarked) [Bupivacaine hydrochloride], the “concentration in de-ionized water (saturation)” value in series [2] turned out to be 40000 µg/mL.

The values above are taken from patent publication US11179326B2, “Short duration depot formulations” (Durect Corporation, priority 2002, dated 2021).
